According to a melting point compilation (Tetko et al.):

SMILES | melting point [°C]
CCOC(=O)c1cc(NCc2c(C)cccc2CC)c2nc(C)n(C)c2c1 | 171 to 173
CCCc1[nH]c2ccccc2c1C1(c2ccc(N(CC)CC)cc2OCCCCCCCCCCOc2cc(N(CC)CC)ccc2C2(c3c(CCC)[nH]c4ccccc34)OC(=O)c3ccccc32)OC(=O)c2ccccc21 (stereo unspecified) | 116 to 118
FC(F)(F)C(F)(F)C(F)(F)C(F)(F)C(F)(F)C(F)(F)CCc1ccc(P(c2ccc(CCC(F)(F)C(F)(F)C(F)(F)C(F)(F)C(F)(F)C(F)(F)F)cc2)c2ccc(CCC(F)(F)C(F)(F)C(F)(F)C(F)(F)C(F)(F)C(F)(F)F)cc2)cc1 | 49.9 to 52.4
CS(=N)(=O)c1ccc(Nc2ncc(Br)c(Cl)n2)cc1 (racemic) | 170 to 173
NCC1Cc2cc(F)cc(-c3ccoc3)c2O1 (stereo unspecified) | 236 to 239
CCCCCc1nc(C)c(C(=O)OCC)n1Cc1ccc2oc(-c3ccccc3-c3nnn(C(c4ccccc4)(c4ccccc4)c4ccccc4)n3)c(Br)c2c1 | 89 to 90
CCc1nc2c(N)nc3cc(OCCCc4cccnc4)ccc3c2s1 | 172 to 173
CCC(CC)NC(=O)c1ccc(-c2scc(-c3ccccc3Cl)c2CC(=O)OC)cc1 | 57 to 59
Cc1c(Nc2c(C#N)cnc3sc(C4=CCN(C)CC4)cc23)ccc2[nH]ccc12 | 230
CC(C)CCCC(C)C1CCC2C3CC=C4CC(N(CCCNC(=O)CCNC(=O)CCCCCNc5ccc([N+](=O)[O-])cc5[N+](=O)[O-])S(=O)(=O)c5ccccc5[N+](=O)[O-])CCC4(C)C3CCC12C (stereo unspecified) | 86 to 87
CCCCCCCCOc1ccc(NS(=O)(=O)c2cc(C(C)(C)CC(C)(C)C)ccc2OCCCCCCCC)cc1S(=O)(=O)NCC(C)c1nn2nc(C)c(Cl)c2[nH]1 (stereo unspecified) | 129 to 131
Cc1cc(F)c(-n2nc(C(F)(F)F)nc2NC(=O)C(F)(F)F)cc1C(S(=O)C(c1cc(-n2nc(C(F)(F)F)nc2NC(=O)C(F)(F)F)c(F)cc1C)C(F)(F)F)C(F)(F)F (stereo unspecified) | 233 to 237
CC1CNc2c(cccc2S(=O)(=O)NC(CCCc2cn(C(c3ccccc3)(c3ccccc3)c3ccccc3)cn2)C(=O)N2CCC(C)CC2C(=O)NOCc2ccccc2)C1 (stereo unspecified) | 90 to 100
CCN(CC)CCN=S(=O)(c1cccs1)c1cccs1 | 131
CC(=O)Oc1c(C)cc(Oc2ccc3nc(COc4ccc(CC5SC(=O)N(C(c6ccccc6)(c6ccccc6)c6ccccc6)C5=O)cc4)n(C)c3n2)c(C)c1C (stereo unspecified) | 190 to 191
[C-]#[N+]C(c1cc(Br)c(OC)c(OC)c1)S(=O)(=O)c1ccc(C)cc1 (stereo unspecified) | 109 to 110
CCCCC(CC)CN1C(=O)C(=Cc2cc3c(s2)c2sc(-c4ccc(N(c5ccccc5)c5ccccc5)cc4)cc2n3CC(CC)CCCC)C(C)=C(C#N)C1=O (stereo unspecified) | 137 to 140
CCN(CC)CCN=S(=O)(c1ccccc1)c1ccco1 (stereo unspecified) | 133
CC(C)(C)c1cc(-c2cc(C(C)(C)C)cc(C(C)(C)C)c2Op2oc3c(C(C)(C)C)cc(C(C)(C)C)cc3c3cc(C(C)(C)C)cc(C(C)(C)C)c3o2)c(O)c(C(C)(C)C)c1 | 245 to 250
CC(C)(C)c1cc(SC(CCCC(Sc2cc(C(C)(C)C)c(O)c(C(C)(C)C)c2)Sc2cc(C(C)(C)C)c(O)c(C(C)(C)C)c2)Sc2cc(C(C)(C)C)c(O)c(C(C)(C)C)c2)cc(C(C)(C)C)c1O | 148 to 153
CCCCCCCCCCCCN(CCCCCCCCCCCC)c1ccc2c(c1)O/C(=C1\Oc3cc(N(CCCCCCCCCCCC)CCCCCCCCCCCC)ccc3C1=O)C2=O | 105
COc1ccc(C(/C=C/c2cc(I)c(OC)c(OC)c2)S(=O)(=O)C(/C=C/c2cc(I)c(OC)c(OC)c2)c2ccc(OC)cc2)cc1 (stereo unspecified) | 160 to 161
[C-]#[N+]Cc1c(OC)cc(OC)cc1OC | 107 to 109

Second part, the compound after the results:

melting point [°C] | SMILES
138 to 140 | CC(C)[C@H](NC(=O)N(C)Cc1csc(NC(=O)OC(C)(C)C)n1)C(=O)N[C@@H](Cc1ccccc1)[C@H](O)[C@@H](O)[C@H](Cc1ccccc1)NC(=O)[C@@H](NC(=O)N(C)Cc1csc(NC(=O)OC(C)(C)C)n1)C(C)C
162 to 164 | C=CCCC(=O)Nc1c(I)c(C(=O)NC(COC(C)=O)COC(C)=O)c(I)c(C(=O)NC(COC(C)=O)COC(C)=O)c1I
77 to 79 | CC(C)(C1CCC(OCC(CN2C(C)(C)CC3(CC2(C)C)OCCO3)OC(=O)c2ccccc2)CC1)C1CCC(OCC(CN2C(C)(C)CC3(CC2(C)C)OCCO3)OC(=O)c2ccccc2)CC1 (stereo unspecified)
318 to 320 | CC1(C)CC(Nc2nc(N(C3CC(C)(C)NC(C)(C)C3)C3CC(C)(C)NC(C)(C)C3)nc(N(C3CC(C)(C)NC(C)(C)C3)C3CC(C)(C)NC(C)(C)C3)n2)CC(C)(C)N1
160 to 165 | CCOC(=O)C(C)OC(=O)c1c(I)c(NC(C)=O)c(I)c(C(=O)OC(C)C(=O)OCC)c1I (stereo unspecified)
228 to 230 | CC(=O)OCC(COC(C)=O)NC(=O)c1c(I)c(NC(=O)OCC2CO2)c(I)c(C(=O)NC(COC(C)=O)COC(C)=O)c1I (stereo unspecified)
65 to 67 | CCCCCCCCCCCCCCCC(=O)C(O)C(O)(C(=O)c1cccc(NC(=O)C(CSC(C)=O)Cc2ccccc2)c1)C(O)C(=O)CCCCCCCCCCCCCCC (stereo unspecified)
150 to 152 | CC(C)[C@H](NC(=O)N(C)Cc1nc2ccccc2[nH]1)C(=O)N[C@@H](Cc1ccccc1)C[C@H](O)[C@H](Cc1ccccc1)NC(=O)[C@@H](NC(=O)N(C)Cc1nc2ccccc2[nH]1)C(C)C
185 to 200 | COC(=O)c1cc(C(C)(C)C)c(OP2OP(Oc3c(C(C)(C)C)cc(C(=O)OC)cc3C(C)(C)C)OP(Oc3c(C(C)(C)C)cc(C(=O)OC)cc3C(C)(C)C)O2)c(C(C)(C)C)c1 (stereo unspecified)
227 to 229 | CC(=O)OCC1OC(OC2C(COC(C)=O)OC(OC3C(COC(C)=O)OC(OCCBr)C(N4C(=O)c5ccccc5C4=O)C3OC(C)=O)C(OC(C)=O)C2OC(C)=O)C(OC(C)=O)C(OC(C)=O)C1OC(C)=O (stereo unspecified)
139 to 141 | CCOc1cc(C(=O)N2CCC(CCN3CCC(C(=O)c4nc5ccccc5n4Cc4ccc(F)cc4)CC3)(c3ccc(OC)c(OC)c3)C2)cc(OCC)c1OCC (stereo unspecified)
160 to 161 | CC[C@H](C)[C@H](NC(=O)N(C)Cc1ccccn1)C(=O)NC(Cc1ccccc1)C(O)C(O)C(Cc1ccccc1)NC(=O)[C@@H](NC(=O)N(C)Cc1ccccn1)[C@@H](C)CC (stereo partly specified)
118 to 121 | COc1cc(OC)c(/C=C/C(c2ccc(OC)c(NC(=O)CC(=O)O)c2)S(=O)(=O)C(/C=C/c2c(OC)cc(OC)cc2OC)c2ccc(OC)c(NC(=O)CC(=O)O)c2)c(OC)c1 (stereo unspecified)
242 | O=C(Cc1cc(I)c(Oc2cc(I)c(OCC3CO3)c(I)c2)c(I)c1)NC1CCCCC1 (stereo unspecified)
232 to 234 | CC(=O)OCC(COC(C)=O)NC(=O)c1c(I)c(C(=O)NC(COC(C)=O)COC(C)=O)c(I)c(N2CCC(Br)C2=O)c1I (stereo unspecified)
190 | CCCCCCCCCCCCCCCCCCCCCCCCCC(=O)NC(COC1OC(CO)C(O)C(O)C1O)C(O)C(O)CCCCCCCCCCCCCC (stereo unspecified)
45 to 55 | Cc1cc(CCC(=O)OCC(COC(=O)CCc2cc(C)c(O)c(C(C)(C)C)c2)(COC(=O)CCc2cc(C)c(O)c(C(C)(C)C)c2)COC(=O)CCc2cc(C)c(O)c(C(C)(C)C)c2)cc(C(C)(C)C)c1O
179 to 181 | CC(=O)OCC1OC(OC2C(COC(C)=O)OC(OC3C(COC(C)=O)OC(OCCBr)C(OC(C)=O)C3OC(C)=O)C(OC(C)=O)C2OC(C)=O)C(OC(C)=O)C(OC(C)=O)C1OC(C)=O (stereo unspecified)
